We go through 22 compounds from patent US12157730B2, “Heteroaryl derivative, method for producing same, and pharmaceutical composition comprising same as effective component” (VORONOI INC., priority 2019, dated 2024).

This assay has as its target T1, Ba/F3 cell EGFR Exon20 ins NPH (Homo sapiens, UniProt P00533, INS773NPH).
T1 construct: expressed in transfected cells; host or cells: Ba/F3
The experiment in a line: Ba/F3 cell proliferation suppression, EGFR Exon20 ins NPH. Type of assay: cell-based. The conditions noted are these: GI50 class; Ba/F3 cell line with NPH inserted at Exon20 of EGFR; 72 hours. The method, boiled down: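 After 72 h compound exposure (twelve 3-fold steps, 0.3 nM–50 um final), live cells were measured by CellTiter-Glo luminescence and growth expressed as % of control to derive GI50. Cells were seeded at 3000–5000 per well a day earlier; Ba/F3 medium contained IL-3; three repeats.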
Take `C=CC(=O)Nc1cc(Nc2cc(N3OCC[C@@H]3c3cc(F)cc(F)c3)ncn2)c(OC)cc1N1CCC(N2C[C@H](C)N(C3CC3)C[C@@H]2C)CC1` [Example 113, N-(2-(4-((2S,5S)-4-cyclopropyl-2,5-dimethylpiperazine-1-yl)piperidine-1-yl)-5-((6-((R)-3-(3,5-difluorophenyl)isoxazolidine-2-yl)pyrimidine-4-yl)amino)-4-methoxyphenyl) acrylamide]: the “Ba/F3 (NPH) Activity” value was “A (GI50 < 50 nM)”. For the compound `C=CC(=O)Nc1cc(Nc2cc(N3OCC[C@@H]3Cc3cccc(Cl)c3Cl)ncn2)c(OC)cc1N1CC[C@@H](N(C)C)C1` [compound 984, N-(5-((6-((S)-3-(2,3-dichlorobenzyl)isoxazolidine-2-yl)pyrimidine-4-yl)amino)-2-((R)-3-(dimethylamino)pyrolidine-1-yl)-4-methoxyphenyl) acrylamide], the “Ba/F3 (NPH) Activity” value is on record as “A (GI50 < 50 nM)”.

For the compound `C=CC(=O)Nc1cc(Nc2cc(N3OCC[C@@H]3c3cccc(OC)c3)ncn2)c(OC)cc1N1CCC(N2CCC(N(C)C)CC2)CC1` [compound 781, N-(2-(4-(dimethylamino)-[1,4'-bipiperidine]-1'-yl)-4-methoxy-5-((6-((R)-3-(3-methoxyphenyl)isoxazolidine-2-yl)pyrimidine-4-yl)amino)phenyl)acrylamide], the “Ba/F3 (NPH) Activity” value was “B (50 nM ≤ GI50 < 500 nM)”. To `C=CC(=O)Nc1cc(Nc2cc(N3OCC[C@@H]3c3cc(F)ccc3F)ncn2)c(OC)cc1N1C[C@@H]2C[C@H]1CO2` [compound 329, N-(2-((1S,4S)-2-oxa-5-azabicyclo[2.2.1]heptane-5-yl)-5-((6-((R)-3-(2,5-difluorophenyl)isoxazolidine-2-yl)pyrimidine-4-yl)amino)-4-methoxyphenyl) acrylamide] belongs “A (GI50 < 50 nM)”; to `C=CCN1CCN(C2CCN(c3cc(OC)c(Nc4cc(N5OCC[C@@H]5c5cccc(F)c5F)ncn4)cc3NC(=O)C=C)CC2)CC1` [Example 209, N-(2-(4-(4-allylpiperazine-1-yl)piperidine-1-yl)-5-((6-((R)-3-(2,3-difluorophenyl)isoxazolidine-2-yl)pyrimidine-4-yl)amino)-4-methoxyphenyl) acrylamide], “A (GI50 < 50 nM)”; to `C=CC(=O)Nc1cc(Nc2cc(N3OCC[C@@H]3c3cccc(C#N)c3)ncn2)c(OC)cc1N1CCC(N2CC3CCC(C2)N3C2CC2)CC1` [Example 133, N-(5-((6-((R)-3-(3-cyanophenyl)isoxazolidine-2-yl)pyrimidine-4-yl)amino)-2-(4-(8-cyclopropyl-3,8-diazabicyclo[3.2.1]octan-3-yl)piperidine-1-yl)-4-methoxyphenyl) acrylamide], “B (50 nM ≤ GI50 < 500 nM)”.

As for `C=CC(=O)Nc1cc(Nc2cc(N3OCC[C@@H]3Cc3cccc(Cl)c3C)ncn2)c(OC)cc1N1CCC(N2C[C@@H]3C[C@H]2CO3)CC1` [compound 1029, N-(2-(4-((1S,4S)-2-oxa-5-azabicyclo [2.2.1]heptane-5-yl)piperidine-1-yl)-5-((6-((S)-3-(3-chloro-2-methylbenzyl)isoxazolidine-2-yl)pyrimidine-4-yl)amino)-4-methoxyphenyl) acrylamide], the “Ba/F3 (NPH) Activity” value is “A (GI50 < 50 nM)”. Take `C#Cc1cccc([C@H]2CCON2c2cc(Nc3cc(NC(=O)C=C)c(N4CCN(CC)CC4)cc3OC)ncn2)c1` [compound 648, N-(2-(4-ethylpiperazine-1-yl)-5-((6-((R)-3-(3-ethynylphenyl)isoxazolidine-2-yl)pyrimidine-4-yl)amino)-4-methoxyphenyl) acrylamide]: the “Ba/F3 (NPH) Activity” value is “A (GI50 < 50 nM)”. Regarding `C=CC(=O)Nc1cc(Nc2cc(N3OCC[C@@H]3c3ccc(F)c(Cl)c3)ncn2)c(OC)cc1N1CCC(N2CCN(CC3CC3)CC2)CC1` [Example 94, N-(5-((6-((R)-3-(3-chloro-4-fluorophenyl)isoxazolidine-2-yl)pyrimidine-4-yl)amino)-2-(4-(4-(cyclopropylmethyl)piperazine-1-yl)piperidine-1-yl)-4-methoxyphenyl) acrylamide], the “Ba/F3 (NPH) Activity” value is given as “A (GI50 < 50 nM)”. As to `C=CC(=O)Nc1cc(Nc2cc(N3OCC[C@@H]3c3cccc(Cl)c3Cl)ncn2)c(OC)cc1N1CCC(N2C[C@@H]3C[C@H]2CN3CC)CC1` [compound 607, N-(5-((6-((R)-3-(2,3-dichlorophenyl)isoxazolidine-2-yl)pyrimidine-4-yl)amino)-2-(4-((1S,4S)-5-ethyl-2,5-diazabicyclo[2.2.1]heptane-2-yl)piperidine-1-yl)-4-methoxyphenyl) acrylamide], the “Ba/F3 (NPH) Activity” value is given as “A (GI50 < 50 nM)”. With `C=CC(=O)Nc1cc(Nc2cc(N3OCC[C@@H]3c3cc(F)ccc3F)ncn2)c(OC)cc1N1CCC(N2CCO[C@@H](C)C2)CC1` [compound 821, N-(5-((6-((R)-3-(2,5-difluorophenyl)isoxazolidine-2-yl)pyrimidine-4-yl)amino)-4-methoxy-2-(4-((S)-2-methylmorpholino)piperidine-1-yl)phenyl) acrylamide] the entry was “A (GI50 < 50 nM)”; with `C=CC(=O)Nc1cc(Nc2cc(N3OCC[C@@H]3c3ccc(F)c(Cl)c3)ncn2)c(OC)cc1N1C[C@@H]2C[C@H]1CO2` [compound 902, N-(2-((1S,4S)-2-oxa-5-azabicyclo [2.2.1]heptane-5-yl)-5-((6-((R)-3-(3-chloro-4-fluorophenyl)isoxazolidine-2-yl)pyrimidine-4-yl)amino)-4-methoxyphenyl) acrylamide], “A (GI50 < 50 nM)”; with `C=CC(=O)Nc1cc(Nc2cc(N3OCC[C@@H]3c3cccc(Cl)c3F)ncn2)c(OC)cc1N1CC[C@@H](N(C)C)C1` [compound 834, N-(5-((6-((R)-3-(3-chloro-2-fluorophenyl)isoxazolidine-2-yl)pyrimidine-4-yl)amino)-2-((R)-3-(dimethylamino)pyrolidine-1-yl)-4-methoxyphenyl) acrylamide], “A (GI50 < 50 nM)”.

On to `C=CC(=O)Nc1cc(Nc2cc(N3OCC[C@@H]3c3ccccc3)ncn2)c(OC)cc1N1CCC(N(C)CCOC)CC1` [compound 736, N-(4-methoxy-2-(4-((2-methoxyethyl) (methyl)amino)piperidine-1-yl)-5-((6-((R)-3-phenylisoxazolidine-2-yl)pyrimidine-4-yl)amino)phenyl) acrylamide], for which the “Ba/F3 (NPH) Activity” value was “A (GI50 < 50 nM)”. In the case of `C=CC(=O)Nc1cc(Nc2cc(N3OCC[C@@H]3Cc3cccc(Cl)c3C)ncn2)c(OC)cc1N1CCC(N2CCN(C3CC3)[C@@H](C)C2)CC1` [compound 1028, N-(5-((6-((S)-3-(3-chloro-2-methylbenzyl)isoxazolidine-2-yl)pyrimidine-4-yl)amino)-2-(4-((S)-4-cyclopropyl-3-methylpiperazine-1-yl)piperidine-1-yl)-4-methoxyphenyl) acrylamide], the “Ba/F3 (NPH) Activity” value is given as “A (GI50 < 50 nM)”. With `C=CC(=O)Nc1cc(Nc2cc(N3OCC[C@@H]3c3cccc(F)c3F)ncn2)c(OC)cc1N1CCN(C)C[C@H]1C` [compound 885, N-(5-((6-((R)-3-(2,3-difluorophenyl)isoxazolidine-2-yl)pyrimidine-4-yl)amino)-2-((R)-2,4-dimethylpiperazine-1-yl)-4-methoxyphenyl) acrylamide] the entry was “A (GI50 < 50 nM)”; with `C=CC(=O)Nc1cc(Nc2cc(N3OCC[C@@H]3Cc3cccc(Cl)c3OC)ncn2)c(OC)cc1N1CCC(N2C[C@H]3C[C@@H]2CO3)CC1` [compound 1055, N-(2-(4-((1R,4R)-2-oxa-5-azabicyclo [2.2.1]heptane-5-yl)piperidine-1-yl)-5-((6-((S)-3-(3-chloro-2-methoxybenzyl)isoxazolidine-2-yl)pyrimidine-4-yl)amino)-4-methoxyphenyl) acrylamide], “A (GI50 < 50 nM)”. With `C=CC(=O)Nc1cc(Nc2cc(N3OCC[C@@H]3c3ccc(F)cc3)ncn2)c(OC)cc1N1CCC(N2CC[C@@H](N(C)C)C2)CC1` [compound 810, N-(2-(4-((R)-3-(dimethylamino)pyrolidine-1-yl)piperidine-1-yl)-5-((6-((R)-3-(4-fluorophenyl)isoxazolidine-2-yl)pyrimidine-4-yl)amino)-4-methoxyphenyl) acrylamide] the entry was “A (GI50 < 50 nM)”; with `C=CC(=O)Nc1cc(Nc2cc(N3OCC[C@@H]3c3ccc(Cl)c(F)c3)ncn2)c(OC)cc1N1CCOCC1` [compound 854, N-(5-((6-((R)-3-(4-chloro-3-fluorophenyl)isoxazolidine-2-yl)pyrimidine-4-yl)amino)-4-methoxy-2-morpholinophenyl) acrylamide], “A (GI50 < 50 nM)”. `C=CC(=O)Nc1cc(Nc2cc(N3OCC[C@@H]3c3ccc(Cl)c(F)c3)ncn2)c(OC)cc1N1C[C@H]2C[C@@H]1CO2` [compound 863, N-(2-((1R,4R)-2-oxa-5-azabicyclo [2.2.1]heptane-5-yl)-5-((6-((R)-3-(4-chloro-3-fluorophenyl)isoxazolidine-2-yl)pyrimidine-4-yl)amino)-4-methoxyphenyl) acrylamide]: the “Ba/F3 (NPH) Activity” value is listed as “A (GI50 < 50 nM)”. To `C=CC(=O)Nc1cc(Nc2cc(N3OCC[C@@H]3c3cccc(F)c3F)ncn2)c(OC)cc1N1CCC(N2CCN(C3CC3)[C@@H](C)C2)CC1` [Example 175, N-(2-(4-((S)-4-cyclopropyl-3-methylpiperazine-1-yl)piperidine-1-yl)-5-((6-((R)-3-(2,3-difluorophenyl)isoxazolidine-2-yl)pyrimidine-4-yl)amino)-4-methoxyphenyl) acrylamide] belongs “A (GI50 < 50 nM)”; to `C=CC(=O)Nc1cc(Nc2cc(N3OCC[C@@H]3Cc3cccc(Cl)c3F)ncn2)c(OC)cc1N1CCC(N2C[C@@H]3C[C@H]2CO3)CC1` [compound 1022, N-(2-(4-((1S,4S)-2-oxa-5-azabicyclo [2.2.1]heptane-5-yl)piperidine-1-yl)-5-((6-((S)-3-(3-chloro-2-fluorobenzyl)isoxazolidine-2-yl)pyrimidine-4-yl)amino)-4-methoxyphenyl) acrylamide], “A (GI50 < 50 nM)”.
